Assay results taken from patent publication US11553712B2 (priority 2010, dated 2023).
Where two headings read alike, the source gives them in different places. Marks after values point to notes of the source that are not given here.

Assays:
TGEV = conditions: 45% (v/v) PG eluate, 20°C
BVDV = conditions: 45% (v/v) PG eluate, 20°C
PRV = conditions: eluate with 45% PG
[1] = TGEV Run 1, T = 0 min Load Sample, Standard titration
[2] = TGEV Run 1, T = 5 min, Standard titration
[3] = TGEV Run 1, T = 15 min, Standard titration
[4] = TGEV Run 1, T = 60 min, Standard titration
[5] = TGEV Run 1, T = 180 min, Standard titration
[6] = TGEV Run 1, T = 360 min, Standard titration
[7] = TGEV Run 2, T = 0 min Load Sample, Standard titration
[8] = TGEV Run 2, T = 5 min, Standard titration
[9] = TGEV Run 2, T = 15 min, Standard titration
[10] = TGEV Run 2, T = 60 min, Standard titration
[11] = TGEV Run 2, T = 180 min, 1LVP (96 wells)
[12] = TGEV Run 2, T = 360 min, 1 LVP (96 wells)
[13] = BVDV Run 1, T = 0 min Load Sample, Standard titration
[14] = BVDV Run 1, T = 5 min, Standard titration
[15] = BVDV Run 1, T = 15 min, Standard titration
[16] = BVDV Run 1, T = 60 min, Standard titration
[17] = BVDV Run 1, T = 180 min, Standard titration
[18] = BVDV Run 1, T = 360 min, Standard titration
[19] = BVDV Run 2, T = 0 min Load Sample, Standard titration
[20] = BVDV Run 2, T = 5 min, Standard titration
[21] = BVDV Run 2, T = 15 min, Standard titration
[22] = BVDV Run 2, T = 60 min, Standard titration
[23] = BVDV Run 2, T = 180 min, Standard titration
[24] = T = 6 h (+SD) (Standard titration)

## propane-1,2-diol [PG]
TGEV; [1]
  Clearance Factor: 0.07 log
  Log10TICD50 (total viral load): 7.38 Log10TICD50
  Titre: 5.12 log10TCID50/ml
TGEV; [2]
  Clearance Factor: 1.24 log
  Log10TICD50 (total viral load): 6.21 Log10TICD50
  Titre: 3.95 log10TCID50/ml
TGEV; TGEV Run 1, T = 5 min vs T0, Standard titration
  Reduction Factor: 1.17 log
TGEV; [3]
  Clearance Factor: 2.41 log
  Log10TICD50 (total viral load): 5.04 Log10TICD50
  Titre: 2.78 log10TCID50/ml
TGEV; TGEV Run 1, T = 15 min vs T0, Standard titration
  Reduction Factor: 2.34 log
TGEV; [4]
  Clearance Factor: 3.87 log
  Log10TICD50 (total viral load): 3.58 Log10TICD50
  Titre: 1.32 log10TCID50/ml
TGEV; TGEV Run 1, T = 60 min vs T0, Standard titration
  Reduction Factor: 3.8 log
TGEV; [5]
  Clearance Factor: 4.39 log
  Log10TICD50 (total viral load): 3.06 Log10TICD50
  Titre: 0.8 log10TCID50/ml
TGEV; TGEV Run 1, T = 180 min vs T0, Standard titration
  Reduction Factor: 4.32 log
TGEV; [6]
  Clearance Factor: >4.39 log
  Log10TICD50 (total viral load): <3.06 Log10TICD50
  Titre: <0.8 log10TCID50/ml
TGEV; TGEV Run 1, T = 360 min vs T0, Standard titration
  Reduction Factor: >4.32 log
TGEV; [7]
  Clearance Factor: 0.08 log
  Log10TICD50 (total viral load): 7.54 Log10TICD50
  Titre: 5.28 log10TCID50/ml
TGEV; [8]
  Clearance Factor: 1.08 log
  Log10TICD50 (total viral load): 6.54 Log10TICD50
  Titre: 4.28 log10TCID50/ml
TGEV; TGEV Run 2, T = 5 min vs T0, Standard titration
  Reduction Factor: 1 log
TGEV; [9]
  Clearance Factor: 2.16 log
  Log10TICD50 (total viral load): 5.46 Log10TICD50
  Titre: 3.2 log10TCID50/ml
TGEV; TGEV Run 2, T = 15 min vs T0, Standard titration
  Reduction Factor: 2.08 log
TGEV; [10]
  Clearance Factor: 4.56 log
  Log10TICD50 (total viral load): 3.06 Log10TICD50
  Titre: 0.8 log10TCID50/ml
TGEV; TGEV Run 2, T = 60 min vs T0, Standard titration
  Reduction Factor: 4.48 log
TGEV; [11]
  Clearance Factor: 5.48 log
  Log10TICD50 (total viral load): 2.14 Log10TICD50
  Titre: −0.12 log10TCID50/ml
TGEV; TGEV Run 2, T = 180 min vs T0, 1LVP (96 wells)
  Reduction Factor: 5.4 log
TGEV; [12]
  Clearance Factor: >5.48 log
  Log10TICD50 (total viral load): <2.14 Log10TICD50
  Titre: <−0.12 log10TCID50/ml
TGEV; TGEV Run 2, T = 360 min vs T0, 1 LVP (96 wells)
  Reduction Factor: >5.40 log
BVDV; [13]
  Clearance Factor: 0.43 log
  Log10TICD50 (total viral load): 5.85 Log10TICD50
  Titre: 3.12 log10TCID50/ml
BVDV; [14]
  Clearance Factor: 1.65 log
  Log10TICD50 (total viral load): 4.63 Log10TICD50
  Titre: 1.9 log10TCID50/ml
BVDV; BVDV Run 1, T = 5 min vs T0, Standard titration
  Reduction Factor: 1.22 log
BVDV; [15]
  Clearance Factor: 1.3 log
  Log10TICD50 (total viral load): 4.98 Log10TICD50
  Titre: 2.25 log10TCID50/ml
BVDV; BVDV Run 1, T = 15 min vs T0, Standard titration
  Reduction Factor: 0.87 log
BVDV; [16]
  Clearance Factor: 1.3 log
  Log10TICD50 (total viral load): 4.98 Log10TICD50
  Titre: 2.25 log10TCID50/ml
BVDV; BVDV Run 1, T = 60 min vs T0, Standard titration
  Reduction Factor: 0.87 log
BVDV; [17]
  Clearance Factor: 1.3 log
  Log10TICD50 (total viral load): 4.98 Log10TICD50
  Titre: 2.25 log10TCID50/ml
BVDV; BVDV Run 1, T = 180 min vs T0, Standard titration
  Reduction Factor: 0.87 log
BVDV; [18]
  Clearance Factor: 2.75 log
  Log10TICD50 (total viral load): 3.53 Log10TICD50
  Titre: 0.8 log10TCID50/ml
BVDV; BVDV Run 1, T = 360 min vs T0, Standard titration
  Reduction Factor: >4.32 log
BVDV; [19]
  Clearance Factor: 0.44 log
  Log10TICD50 (total viral load): 5.76 Log10TICD50
  Titre: 3.03 log10TCID50/ml
BVDV; [20]
  Clearance Factor: 1.88 log
  Log10TICD50 (total viral load): 4.32 Log10TICD50
  Titre: 1.59 log10TCID50/ml
BVDV; BVDV Run 2, T = 5 min vs T0, Standard titration
  Reduction Factor: 1.44 log
BVDV; [21]
  Clearance Factor: 2.15 log
  Log10TICD50 (total viral load): 4.05 Log10TICD50
  Titre: 1.32 log10TCID50/ml
BVDV; BVDV Run 2, T = 15 min vs T0, Standard titration
  Reduction Factor: 1.71 log
BVDV; [22]
  Clearance Factor: 1.88 log
  Log10TICD50 (total viral load): 4.32 Log10TICD50
  Titre: 1.59 log10TCID50/ml
BVDV; BVDV Run 2, T = 60 min vs T0, Standard titration
  Reduction Factor: 1.44 log
BVDV; [23]
  Clearance Factor: >2.67 log
  Log10TICD50 (total viral load): <3.53 Log10TICD50
  Titre: <0.8 log10TCID50/ml
BVDV; BVDV Run 2, T = 180 min vs T0, Standard titration
  Reduction Factor: >2.23 log
BVDV; BVDV Run 2, T = 360 min, 1 LVP
  Clearance Factor: >3.59 log
  Log10TICD50 (total viral load): <2.61 Log10TICD50
  Titre: <−0.12 log10TCID50/ml
BVDV; BVDV Run 2, T = 360 min vs T0, 1 LVP
  Reduction Factor: >3.15 log
PRV; Control T = 0 h (w/o SD)
  Titer: 2.17 ± 0.30 TCID50/ml
  Viral Load: 4.47 ± 0.30 log10
PRV; Control T = 6 h (w/o SD)
  Titer: ≤0.78* TCID50/ml
  Viral Load: ≤3.08 log10
PRV; T = 0 h (+SD)
  Titer: ≤1.48* TCID50/ml
  Viral Load: ≤3.78 log10
PRV; T = 1 h (+SD)
  Titer: ≤1.48* TCID50/ml
  Viral Load: ≤3.78 log10
PRV; T = 3 h (+SD)
  Titer: ≤1.48* TCID50/ml
  Viral Load: ≤3.78 log10
PRV; [24]
  Titer: ≤1.48* TCID50/ml
  Viral Load: ≤3.78 log10
